# In patent US20180155757A1, “IDENTIFICATION OF BACTERIA THAT ARE RESISTANT TO CARBAPENEMS BY MEMBRANE IMPERVIOUSNESS” (BIOMÉRIEUX, priority 2015, published 2018):
# Read-outs that look alike come from different tables or passages of the source.
# Assays:
# Test in all cases: Etest MIC of indicator carbapenems on MH II agar without/with PMBN
# Format in all cases: cell-based
# [1] = test system: K. pneumoniae 1204034
# Protocol: (§1) The determinations of antibiotic MIC were carried out on solid culture media with the Etest® method. To do this, Etest® strips (bioMérieux, France) were used: • Etest® Imipenem IM 32, and • Etest® Ertapenem ETP 32, and also solid culture media, differing from one another by virtue of their non-inhibitory concentrations of PMBN.
# (§2) These solid culture media are prepared in Petri dishes (0=145 mm; V=50 ml) on a base of MH II Agar (Becton Dickinson®, United States), more or less supplemented with PMBN. The PMBN concentrations range from 0 up to concentrations equivalent to one fifth of the MIC of PMBN (⅕ MICPMBN).
# (§3) Using a swab and the Retro C80™ rota-plater (bioMérieux, France), the culture media were inoculated with the bacteria, originating from an inoculum of 0.5 McFarland, prepared in 0.85% NaCl solution from colonies subcultured the day before on MH II agar.
# (§4) The various Etest® strips are then deposited on the surface of the culture media. After 16 to 20 hours of incubation at 35° C., the MICS were read.
# (§5) To do this, imipenem and ertapenem were used as indicator carbapenems. Non-inhibitory concentrations of PMBN, equivalent to concentrations of one tenth ( 1/10), one eighth (⅛) and one fifth (⅕) of the MIC of PMBN, were applied.
# (§6) In the light of the MICPMBN values previously identified, very predominantly much higher than 300 μg/ml, the following standard concentrations were retained and applied to the bacterial strains to be tested: 50, 100, 150, 200 and 300 μg/ml.
# (§7) By way of indicator carbapenems according to the invention, in addition to imipenem (IM) and ertapenem (ETP), meropenem (MP) was also tested. Like the other two antibiotics, meropenem was used in the form of Etest® strips (Etest® Meropenem MP 32 from the company bioMérieux, France).
# (§8) The methods used to prepare the new culture media and to carry out the antibiotic-sensitivity tests are identical to those described above.
# [2] = test system: E. aerogenes 1204048; conditions: in µg/mL
# Protocol: as §1, §2, §3, §4, §5, §6, §7, §8
# [3] = test system: K. pneumoniae 1002015
# Protocol: as §1, §2, §3, §4, §5, §6, §7, §8
# [4] = test system: E. aerogenes 9203076
# Protocol: as §1, §2, §3, §4, §5, §6, §7, §8
# [5] = test system: E. aerogenes 9306071
# Protocol: as §1, §2, §3, §4, §5, §6, §7, §8
structure (smiles),measurement,setting,value
"C[C@@H](O)[C@H]1C(=O)N2C(C(=O)O)=C(SCCN=CN)C[C@H]12 [IM, imipenem]",MIC,"[1]; K. pneumoniae 1204034 (membrane impermeability), [PMBN] 0, Table 4a",3 mg/L
same,MIC,"[1]; K. pneumoniae 1204034 (membrane impermeability), [PMBN] 100, Table 4a",0.5 mg/L
same,MIC,"[1]; K. pneumoniae 1204034 (membrane impermeability), [PMBN] 200, Table 4a",0.38 mg/L
same,MIC,"[1]; K. pneumoniae 1204034 (membrane impermeability), [PMBN] 300, Table 4a",0.19 mg/L
same,MIC,"[1]; K. pneumoniae 1204034, [PMBN] 0, Table 3",2 mg/L
same,MIC,"[1]; K. pneumoniae 1204034, [PMBN] MIC/5",0.5 mg/L
same,MIC,"[1]; K. pneumoniae 1204034, [PMBN] MIC/8",0.5 mg/L
same,MIC,"[1]; K. pneumoniae 1204034, [PMBN] MIC/10",0.5 mg/L
same,MIC,"[1]; Klebsiella pneumoniae, 1204034, K. pneumoniae 1204034 (porin−), [PMBN] 0, Table 4, read-out: MIC",2 mg/L
same,MIC,"[1]; Klebsiella pneumoniae, 1204034, K. pneumoniae 1204034 (porin−), [PMBN] 150 μg/ml, Table 4, read-out: MIC",0.38 mg/L
same,MIC,"[1]; Klebsiella pneumoniae, 1204034, K. pneumoniae 1204034 (porin−), [PMBN] 200 μg/ml, Table 4, read-out: MIC",0.38 mg/L
same,MIC,"[2]; E. aerogenes 1204048 (membrane impermeability), [PMBN] 0, Table 4a",>32
same,MIC,"[2]; E. aerogenes 1204048 (membrane impermeability), [PMBN] 100, Table 4a",12
same,MIC,"[2]; E. aerogenes 1204048 (membrane impermeability), [PMBN] 200, Table 4a",6
same,MIC,"[2]; E. aerogenes 1204048 (membrane impermeability), [PMBN] 300, Table 4a",3
same,MIC,"[2]; E. aerogenes 1204048, [PMBN] 0, Table 3",16
same,MIC,"[2]; E. aerogenes 1204048, [PMBN] MIC/5",0.5
same,MIC,"[2]; E. aerogenes 1204048, [PMBN] MIC/8",1
same,MIC,"[2]; E. aerogenes 1204048, [PMBN] MIC/10",2
same,MIC,"[3]; K. pneumoniae 1002015, [PMBN] 0, Table 3",2 mg/L
same,MIC,"[3]; K. pneumoniae 1002015, [PMBN] MIC/5",0.25 mg/L
same,MIC,"[3]; K. pneumoniae 1002015, [PMBN] MIC/8",0.25 mg/L
same,MIC,"[3]; K. pneumoniae 1002015, [PMBN] MIC/10",0.5 mg/L
same,MIC,"[3]; Klebsiella pneumoniae, 1002015, K. pneumoniae 1002015 (porin−), [PMBN] 0, Table 4, read-out: MIC",0.5 mg/L
same,MIC,"[3]; Klebsiella pneumoniae, 1002015, K. pneumoniae 1002015 (porin−), [PMBN] 150 μg/ml, Table 4, read-out: MIC",0.38 mg/L
same,MIC,"[3]; Klebsiella pneumoniae, 1002015, K. pneumoniae 1002015 (porin−), [PMBN] 200 μg/ml, Table 4, read-out: MIC",0.25 mg/L
same,MIC,"[4]; E. aerogenes 9203076 (membrane impermeability), [PMBN] 0, Table 4a, in µg/mL",8
same,MIC,"[4]; E. aerogenes 9203076 (membrane impermeability), [PMBN] 100, Table 4a, in µg/mL",16
same,MIC,"[4]; E. aerogenes 9203076 (membrane impermeability), [PMBN] 200, Table 4a, in µg/mL",4
same,MIC,"[4]; E. aerogenes 9203076 (membrane impermeability), [PMBN] 300, Table 4a, in µg/mL",4
same,MIC,"[4]; E. aerogenes 9203076, [PMBN] 0, Table 3, in µg/mL",8
same,MIC,"[4]; E. aerogenes 9203076, [PMBN] MIC/5, in µg/mL",2
same,MIC,"[4]; E. aerogenes 9203076, [PMBN] MIC/8, in µg/mL",2
same,MIC,"[4]; E. aerogenes 9203076, [PMBN] MIC/10, in µg/mL",2
same,MIC,"[4]; Klebsiella aerogenes, 9203076, E. aerogenes 9203076 (porin−), [PMBN] 0, Table 4, read-out: MIC",6 mg/L
same,MIC,"[4]; Klebsiella aerogenes, 9203076, E. aerogenes 9203076 (porin−), [PMBN] 150 μg/ml, Table 4, read-out: MIC",3 mg/L
same,MIC,"[4]; Klebsiella aerogenes, 9203076, E. aerogenes 9203076 (porin−), [PMBN] 200 μg/ml, Table 4, read-out: MIC",3 mg/L
same,MIC,"[5]; E. aerogenes 9306071 (membrane impermeability), [PMBN] 0, Table 4a",12 mg/L
same,MIC,"[5]; E. aerogenes 9306071 (membrane impermeability), [PMBN] 100, Table 4a",6 mg/L
same,MIC,"[5]; E. aerogenes 9306071 (membrane impermeability), [PMBN] 200, Table 4a",3 mg/L
same,MIC,"[5]; E. aerogenes 9306071 (membrane impermeability), [PMBN] 300, Table 4a",2 mg/L
same,MIC,"[5]; E. aerogenes 9306071, [PMBN] 0, Table 3",8 mg/L
same,MIC,"[5]; E. aerogenes 9306071, [PMBN] MIC/5",2 mg/L
same,MIC,"[5]; E. aerogenes 9306071, [PMBN] MIC/8",4 mg/L
same,MIC,"[5]; E. aerogenes 9306071, [PMBN] MIC/10",4 mg/L
